Some results are limits rather than exact numbers.

In one series the test system is human plasma. Nature of the series: Anticoagulant effect on human plasma in vitro (APTT determination). The note with it: for aPTT EC1.5×: concentration giving APTT of 1.5× blank control; for aPTT EC2×: concentration giving APTT of 2× blank control. Format: biochemical. The gist of the method:
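Citrated (3.2%) human plasma, stored at −80 °C and thawed, mixed with compound in DMSO (2% v/v; DMSO-only blank) and incubated 10 min at 37 °C before APTT on a coagulation analyzer. EC1.5× and EC2× are concentrations giving APTT 1.5× and 2× the blank control, from curve fitting.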

For the next series, the target named is T1, CYP1A2 (Homo sapiens, UniProt P05177).
T1 construct: Liver microsomes (150-donor, Corning, Cat. 452117; Lot; 38292), NADPH; tissue Corning 452117; host or cells: liver microsomes, 150-donor pool
T1 sequence (P05177 1-516): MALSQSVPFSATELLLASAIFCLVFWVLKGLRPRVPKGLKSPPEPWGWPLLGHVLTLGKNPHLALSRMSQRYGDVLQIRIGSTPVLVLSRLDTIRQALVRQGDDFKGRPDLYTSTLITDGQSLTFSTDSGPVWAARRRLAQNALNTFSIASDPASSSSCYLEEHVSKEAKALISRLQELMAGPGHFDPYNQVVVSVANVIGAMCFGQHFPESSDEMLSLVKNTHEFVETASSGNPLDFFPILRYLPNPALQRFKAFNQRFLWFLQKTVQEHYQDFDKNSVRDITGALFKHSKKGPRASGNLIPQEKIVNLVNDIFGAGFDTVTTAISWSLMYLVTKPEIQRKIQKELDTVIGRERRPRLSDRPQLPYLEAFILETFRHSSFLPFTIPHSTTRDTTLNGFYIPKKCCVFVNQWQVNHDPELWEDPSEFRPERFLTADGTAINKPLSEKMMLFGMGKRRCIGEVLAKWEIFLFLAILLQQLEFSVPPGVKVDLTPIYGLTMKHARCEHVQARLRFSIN
Nature of the series: CYP enzyme inhibition in liver microsomes: CYP1A2. Format: in vitro ADME. The note with it: 0.2 mg/mL liver microsomes. The procedure:
Example 55: Investigation of CYP Enzyme Inhibition by the Compounds of the Present Invention Liver microsomes (150-donor, Corning, Cat. 452117; Lot. 38292), NADPH. A 0.2 mg/mL microsome system was prepared, each test substance and substrate were added, and the final concentration of the test substance was 50 μM. After pre-incubating for 8 min, 10 mM NADPH was added to start the reaction, and the final concentration of NADPH was 1 mM. After a period of incubation, an internal standard such as methanol was added to stop the reaction. The amount of substrate metabolites generated in each reaction well was detected. Data processing: Taking the metabolite generation in the blank well as 100%, the reduction of metabolite generation in each well of the test substance was calculated, and the inhibition rate was calculated.
For orientation: Liver microsomes are vesicles of endoplasmic reticulum, rich in cytochrome P450 enzymes.

A further series deals with T2, hERG (Homo sapiens, UniProt Q12809).
T2 construct: host or cells: HEK293
Description: hERG current in HEK293-hERG stably transfected cells. The note with it: human, HEK293 cells stably transfected with hERG; at 10 μM; read-out: hERG peak current inhibition. Format: cell-based. As to the method: (§1) Example 56: Investigation on hERG of the Compound of the Present Invention
(§2) HEK293-hERG stably transfected cell line (invitrogen). DMEM medium (Gibco), HEPES (invitrogen), Blasticidin (invitrogen)
(§3) HEK293-hERG stably transfected cells were used for experiments when they were cultured to a degree of polymerization of 40%-80%. First, a blank solvent was applied to the cells to establish a baseline. […] In the presence of test compounds, hERG currents were recorded for approximately 5 minutes to reach a steady state, and then 5 sweep frequencies were captured. To ensure good performance of cultured cells and manipulations, the same batch of cells was also tested using the positive control dofetilide.
(§4) Peak current inhibition=(1−Peak tail current compound/Peak tail current vehicle)*100
For orientation: Block of hERG is tested as a sign of cardiac risk.

The target of the next series is T3, hERG current (Homo sapiens, UniProt Q12809).
T3 construct: host or cells: HEK293
The description is as above. Format: cell-based. The note with it: HEK293-hERG cells. The procedure: as §1, §2, §3, §4

T2 sequence (Q12809 whole entry): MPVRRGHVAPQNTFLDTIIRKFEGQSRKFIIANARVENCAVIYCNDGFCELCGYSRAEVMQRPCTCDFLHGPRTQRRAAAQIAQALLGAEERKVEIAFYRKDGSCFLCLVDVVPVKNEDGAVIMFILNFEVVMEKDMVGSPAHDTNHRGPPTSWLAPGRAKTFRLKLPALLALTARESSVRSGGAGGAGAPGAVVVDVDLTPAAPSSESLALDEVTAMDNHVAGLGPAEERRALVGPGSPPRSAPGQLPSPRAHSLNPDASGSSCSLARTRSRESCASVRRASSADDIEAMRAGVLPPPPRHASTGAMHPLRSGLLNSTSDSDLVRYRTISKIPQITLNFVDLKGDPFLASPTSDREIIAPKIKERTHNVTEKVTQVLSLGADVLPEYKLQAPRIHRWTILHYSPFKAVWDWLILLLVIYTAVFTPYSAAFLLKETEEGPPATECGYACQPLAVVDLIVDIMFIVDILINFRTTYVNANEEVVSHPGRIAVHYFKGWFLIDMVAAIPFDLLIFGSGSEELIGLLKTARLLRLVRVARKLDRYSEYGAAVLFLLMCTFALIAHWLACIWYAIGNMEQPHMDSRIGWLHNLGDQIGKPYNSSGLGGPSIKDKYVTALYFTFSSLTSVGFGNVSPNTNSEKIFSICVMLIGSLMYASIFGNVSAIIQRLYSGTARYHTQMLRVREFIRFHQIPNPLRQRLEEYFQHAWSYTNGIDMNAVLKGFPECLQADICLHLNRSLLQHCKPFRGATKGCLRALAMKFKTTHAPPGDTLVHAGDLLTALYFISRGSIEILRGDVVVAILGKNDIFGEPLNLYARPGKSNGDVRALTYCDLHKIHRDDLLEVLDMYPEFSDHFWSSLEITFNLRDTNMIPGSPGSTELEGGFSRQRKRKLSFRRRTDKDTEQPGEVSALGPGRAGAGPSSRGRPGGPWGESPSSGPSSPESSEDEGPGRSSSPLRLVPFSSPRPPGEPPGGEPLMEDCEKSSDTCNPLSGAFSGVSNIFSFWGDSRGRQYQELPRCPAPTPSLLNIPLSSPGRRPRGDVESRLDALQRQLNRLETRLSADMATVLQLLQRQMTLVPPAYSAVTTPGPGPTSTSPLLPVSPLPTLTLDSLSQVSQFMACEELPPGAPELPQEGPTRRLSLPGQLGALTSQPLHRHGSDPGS
T3 sequence (Q12809 whole entry): as above

Turning to `CCC(=O)c1ccc(Cl)cc1-c1cc(=O)n([C@@H](Cc2ccccc2)C(=O)Nc2ccc(C(=O)O)cc2)nc1OC` [Example 32], the “aPTT EC1.5×” value in the series with human plasma was 0.483 µM. Besides, in the series with human plasma, the “aPTT EC2×” value was determined as 1.319 µM. Further, the values for the IC50 against CYP1A2 and against hERG current were above 50 µM and above 10 µM, respectively. Moreover, the inhibition at 5 min, 10 µM on hERG amounted to 2.8%.

Regarding `COc1nn([C@@H](Cc2ccccc2)C(=O)Nc2ccc(C(=O)O)cc2)c(=O)cc1-c1cc(Cl)ccc1C(C)=O` [Example 19, (S)-4-(2-(4-(2-acetyl-5-chlorophenyl)-3-methoxy-6-oxopyridazin-1(6H)-yl)-3-phenylpropanamido)benzoic acid], in the series on human plasma, the “aPTT EC1.5×” value worked out at 0.641 µM and the “aPTT EC2×” value turned out to be 2.817 µM. Further, on CYP1A2, the IC50 is above 50 µM. The inhibition at 5 min, 10 µM on hERG came to 1.17%. The compound further registered an IC50 against hERG current above 10 µM.

Usually IC50 stands for the concentration at which inhibition is half-maximal. The term inhibition denotes the change of the read-out against control, counted positive when it falls.
